From patent US20250129048A1, “MELANOCORTIN 4 RECEPTOR ANTAGONISTS AND USES THEREOF” (Pfizer Inc., priority 2021, published 2025) come the findings set out here.

The target in one test is hMC4R (Homo sapiens (Human), UniProt P32245). In words: In vitro binding affinity assay using hMC4R (radioligand competition binding, CHO cell membranes). The following applies: competition with [125I]-(Nle4, D-Phe7)-α-MSH 0.5 nM; Ki from IC50 by Cheng-Prusoff; read-out: Ki (nM) geometric mean. As to the method:
The binding affinity of test compounds at the α-melanocyte-stimulating hormone receptor (hMC4R) was assessed using a radioligand competition binding assay. Recombinant Chinese hamster ovaries (CHO) cells stably expressing hMC4R (PerkinElmer #ES-191-C) were used for competitive binding. hMC4R membranes were grown in Dulbecco's Modified Essential Medium and Ham's F-12 Medium (DMEM/F12), 10% heat inactivated fetal bovine serum (FBS), 0.4 mg/mL Geneticin and 2 mM L-glutamine. Cell membranes were bulked and frozen until the assay was performed.
Compounds were solubilized in 100% dimethyl sulfoxide (DMSO) to a concentration of 30 mM. A 10-point intermediate dilution series using half log dilutions was created in 100% DMSO with a top concentration of 0.03 mM. The serially diluted compounds were spotted as 1 μL/well, in 96-well Costar 3363 plates. The final compound range in the assay was 300 nM to 0.01 nM with a final DMSO concentration of 1%. Control wells, containing 1 μL of 2 mM ([…]) alpha-melanocyte stimulating hormone (α-MSH-Tocris #2584) was added to the non-specific binding wells and 1 μL 100% DMSO for the total binding control wells. This was followed by the addition of 80 μL of assay buffer [25 mM HEPES, 5 mM MgCl2, 2.5 mM CaCl2, 150 mM NaCl, Complete EDTA-free Protease Inhibitor Tablet (Thermo Scientific #11873580001) and 0.25% BSA]. […] The exact concentration of radioligand used for each experiment was determined by liquid scintillation counting and adjusted if necessary.
Frozen hMC4R cell membranes were thawed and Dounce homogenized. Homogenates were resuspended in assay buffer to a concentration of 2 μg per well. […] The plates were incubated for 2 hours at room temperature. Assay samples were then rapidly filtered through Unifilter-96 GF/B PEI coated filter plates using a filter plate harvester (PerkinElmer) and rinsed with ice-cold wash buffer [25 mM (4-(2-hydroxyethyl)-1-piperazineethanesulfonic acid (HEPES), 1 mM MgCl2, 2.5 mM CaCl2, and 500 mM NaCl]. Filter plates were dried overnight at room temperature. Plates were then bottom-sealed prior to the addition of 50 μL/well Ultima Gold XR scintillation fluid (PerkinElmer 6013111). Plates were then top-sealed, incubated for 60 minutes at room temperature and then the amount of radioactivity present was determined by liquid scintillation counting on a Microbeta Trilux (PerkinElmer #2450-0060).
The raw data (expressed as counts per minute) were analyzed using ActivityBase (IDBS Data Management Software). […] Equilibrium dissociation constant for inhibitor of ligand and receptor interaction (Ki) values were then calculated from the IC50 values using the Cheng-Prusoff equation: Ki=IC50/(1+([L]/Kd)), where [L] is the concentration of the radioligand used in the experiment and Kd is the affinity of the radioligand (determined in separate saturation experiments).
Background: Displacement assays read how much labelled ligand stays bound in the presence of the test substance.

Test [1] concerns the target human Melanocortin-4 receptor (MC4R) (Homo sapiens (Human), UniProt P32245). Briefly: Functional in vitro MC4R antagonist potency assay (intracellular cAMP, HTRF, CHO cells). Type of test: cell-based. As to conditions: cAMP after EC80 agonist stimulation (200 nM αMSH); Kb from IC50 by Leff-Dougall equation; read-out: Kb (nM) Antagonist geometric mean. The method, then: The functional in vitro antagonist potency for test compounds was determined by monitoring intracellular cyclic adenosine monophosphate (cAMP) levels in Chinese hamster ovary (CHO—) cells stably expressing the human Melanocortin-4 receptor (MC4R). Following agonist activation, human MC4R associates with the G-protein complex causing the Ga subunit to exchange bound GDP for GTP, followed by dissociation of the Gα-GTP complex. The activated Ga subunit can couple to downstream effectors to regulate the levels of second messengers or cAMP within the cell. Thereby, determination of intracellular cAMP levels allows for pharmacological characterization. Intracellular cAMP levels are quantitated using a homogenous assay utilizing the Homogeneous Time-Resolved Fluorescence (HTRF) technology from CisBio. The method is a competitive immunoassay between native cAMP produced by cells and the cAMP labelled with the acceptor dye, d2. The two entities then compete for binding to a monoclonal anti-cAMP antibody labeled with cryptate. The specific signal is inversely proportional to the concentration of cAMP in the cells.
Test compounds were solubilized to 30 mM in 100% dimethyl sulfoxide (DMSO) and stored. An 11-point dilution series using 1 in 3 162-fold serial dilutions was created in 100% DMSO with a top concentration of 800 μM. The serially diluted compound was spotted into a 384-well plate (Greiner, Cat No. 781280) at 40 nL/well with duplicate points at each concentration, and then diluted 1 in 1000 with 40 μL assay buffer containing HBSS, 20 mM HEPES (Invitrogen), 0.1% BSA, and 250 μM IBMX (Sigma Aldrich) to create an intermediate plate at 2× final assay concentration (FAC). The final compound concentration range in the assay was 400 nM to […], with a final DMSO concentration of 0.1%.
In-house generated CHO cells stably expressing the Gs-coupled human MC4R receptor were plated in 384-well assay plates (Corning, Cat No. 3570) in 50 μL/well of Ham's F-12 containing 10% heat inactivated FBS, 1× penicillin/streptomycin, 1 mM Glutamax (Invitrogen) at a density of 2,500 cells per well and incubated at 37° C. (95% O2: 5% CO2) overnight, with micro-clime lids (Labcyte, Cat No. LLS-0310). On day of assay, media was removed from the assay plate through gentle flicking and blotting plate on a paper towel and replaced with 5 μL of 2× antagonist compound in assay buffer (HBSS, 20 mM HEPES, 0.1% BSA, 250 μM IBMX) and 0.1% DMSO. Cells were incubated with compound for 30 minutes at 37° C. (95% O2: 5% CO2) before addition of 5 μL EC80 agonist stimulation (200 nM α-melanocyte stimulating hormone, αMSH, Bachem) and another 30-minute incubation at 37° C. (95% O2: 5% CO2). Intracellular cAMP levels were quantified as per Cisbio's protocol (5 μL of D2 and then 5 μL Cryptate, incubated for 1-2 hours at room temperature). Samples were measured on an Envision plate reader (PerkinElmer Life and Analytical Sciences; excitation, 320 nm; emission, 665 nm/620 nm).
Data were analyzed using the ratio of fluorescence intensity at 620 and 665 nm for each well, extrapolated from the cAMP standard curve to express data as nM cAMP for each well. Data expressed as nM cAMP were then normalized to control wells using Activity Base (IDBS). Zero percent effect (ZPE) was defined as nM of cAMP generated from EC80 agonist stimulation (200 nM αMSH). In the absence of an antagonist control compound, one hundred percent effect (HPE) was defined as nM of cAMP generated from assay buffer/vehicle only.
(Time-resolved FRET reads energy transfer from a long-lived donor to a nearby acceptor.)

As usually defined, the Ki is the equilibrium dissociation constant of an inhibitor or competing ligand from its target. For orientation: Kb means the affinity of an antagonist, worked out from how it opposes an agonist.

The structures appear in SMILES notation.

Chain of human Melanocortin-4 receptor (MC4R) (P32245 whole entry): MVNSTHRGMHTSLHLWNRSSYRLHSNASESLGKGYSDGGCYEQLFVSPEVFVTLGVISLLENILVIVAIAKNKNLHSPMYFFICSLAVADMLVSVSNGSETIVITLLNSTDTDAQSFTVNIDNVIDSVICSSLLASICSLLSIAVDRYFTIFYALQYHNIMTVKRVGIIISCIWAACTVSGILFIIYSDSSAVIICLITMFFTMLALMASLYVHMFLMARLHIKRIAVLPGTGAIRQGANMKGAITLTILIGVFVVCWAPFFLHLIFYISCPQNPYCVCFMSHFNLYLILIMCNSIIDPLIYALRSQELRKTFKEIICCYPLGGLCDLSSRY
Chain of hMC4R (P32245 whole entry): as above

With `COc1cc([C@@H](C)C(=O)N2CC[C@H](Nc3ccc(-c4nc5ccccn5n4)c(C)n3)C2)c(F)cn1` [Example 43, (2R)-2-(5-fluoro-2-methoxypyridin-4-yl)-1-[(3S)-3-{[6-methyl-5-([1,2,4]triazolo[1,5-a]pyridin-2-yl)pyridin-2-yl]amino}pyrrolidin-1-yl]propan-1-one], on hMC4R, the Ki was 0.91 nM. The Kb in test [1] is 9.5 nM.
Turning to `COc1cc(OC)cc([C@@H](C)C(=O)N2CC[C@H](Nc3ccc(-c4nc(C(F)(F)F)n(C)n4)c(C)n3)C2)c1` [Example 39, (2R)-2-(3,5-dimethoxyphenyl)-1-[(3S)-3-({6-methyl-5-[1-methyl-5-(trifluoromethyl)-1H-1,2,4-triazol-3-yl]pyridin-2-yl}amino)pyrrolidin-1-yl]propan-1-one], the Ki on hMC4R amounted to 0.28 nM. In addition, in test [1], the antagonist equilibrium constant (Kb) came to 3.3 nM.
`COc1cc([C@@H](C)C(=O)N2CC[C@H](Nc3ccc(-c4nc(C(F)F)n(C)n4)c(C)n3)C2)nc(C)n1` (single isomer, unassigned) [Example 41B]: the Ki on hMC4R came to 2 nM. Moreover, in test [1], the Kb was 3.6 nM.
The matching figures for `COc1cc([C@@H](C)C(=O)N2CC[C@H](Nc3ccc(-c4ncccn4)c(C)n3)C2)cc(OC(F)F)n1` (single isomer, unassigned) [Example 30B]: 0.93 nM and 6.8 nM.
The like results for `COc1cc([C@@H](C)C(=O)N2CC[C@H](Nc3ccc(-c4nc5ccccn5n4)c(C)n3)C2)c(Cl)cn1` [Example 18, (2R)-2-(5-chloro-2-methoxypyridin-4-yl)-1-[(3S)-3-{[6-methyl-5-([1,2,4]triazolo[1,5-a]pyridin-2-yl)pyridin-2-yl]amino}pyrrolidin-1-yl]propan-1-one] were, in that order, 0.51 nM and 2.1 nM.
The matching figures for `Cc1nc(N[C@H]2CCN(C(=O)[C@H](F)c3ccccc3)C2)ccc1-c1cn(C)cn1` (single isomer, unassigned) [Example 13B]: 0.34 nM and 2.9 nM.
Regarding `COc1cc([C@@H](C)C(=O)N2CC[C@H](Nc3ccc(-c4cn(C)c(C(C)(F)F)n4)c(C)n3)C2)c(C)cn1` (single isomer, unassigned) [Example 16B], the Ki on hMC4R was 0.23 nM. Also, the Kb in test [1] was 2.1 nM.
The like results for `COc1cc([C@@H](C)C(=O)N2CC[C@H](Nc3ccc(-c4nc(C(C)(F)F)n(C)n4)c(C)n3)C2)c(Cl)cn1` (single isomer, unassigned) [Example 37B] were, in that order, 0.53 nM and 4.1 nM.
Turning to `COc1cc(OC(F)F)cc([C@@H](C)C(=O)N2CC[C@H](Nc3ccc(-c4nc(C(C)(F)F)n(C)n4)c(C)n3)C2)c1` (single isomer, unassigned) [Example 40B], on hMC4R, the Ki is 0.29 nM. Moreover, in test [1], the Kb is 7.2 nM.
The like results for `Cc1nc(N[C@H]2CCN(C(=O)Cc3cc(F)c(F)c(F)c3)C2)ccc1-c1cn(C)c(C(F)F)n1` [Example 28, 1-[(3S)-3-({5-[2-(difluoromethyl)-1-methyl-1H-imidazol-4-yl]-6-methylpyridin-2-yl}amino)pyrrolidin-1-yl]-2-(3,4,5-trifluorophenyl)ethan-1-one] were, in that order, 0.25 nM and 1.3 nM.
`COc1cc([C@@H](C)C(=O)N2CC[C@H](Nc3ccc(-c4cn(C)c(C(F)F)n4)c(C)n3)C2)cc(OC)n1` (single isomer, unassigned) [Example 12A]: the Ki at hMC4R is 0.31 nM. The Kb in test [1] was found to be 1.9 nM.
The like results for `COc1cc([C@@H](C)C(=O)N2CC[C@H](Nc3ccc(-c4nc(C(F)F)n(C5CC5)n4)c(C)n3)C2)c(F)cn1` [Example 8, (2R)-1-[(3S)-3-({5-[1-cyclopropyl-5-(difluoromethyl)-1H-1,2,4-triazol-3-yl]-6-methylpyridin-2-yl}amino)pyrrolidin-1-yl]-2-(5-fluoro-2-methoxypyridin-4-yl)propan-1-one] were, in that order, 1.2 nM and 19 nM.
On to `COc1cccc([C@@H](C)C(=O)N2CC[C@H](Nc3ccc(-c4cn(C)c(C(C)(F)F)n4)c(C)n3)C2)c1` (single isomer, unassigned) [Example 14B], for which the inhibitory constant (Ki) at hMC4R came out at 0.45 nM. Besides, in test [1], the Kb is 14 nM.
`COc1cc([C@@H](C)C(=O)N2CC[C@H](Nc3ccc(-c4nnn(C)n4)c(C)n3)C2)c(C)cn1` (single isomer, unassigned) [Example 26B]: at hMC4R, the Ki turned out to be 2.1 nM. Moreover, the Kb in test [1] turned out to be 5.6 nM.
The matching figures for `COc1cc([C@@H](C)C(=O)N2CC[C@H](Nc3ccc(-c4ncccn4)c(C)n3)C2)c(C)cn1` (single isomer, unassigned) [Example 22B]: 2.1 nM and 8.1 nM.
